Where two headings read alike, the source gives them in different places.
Columns and labels:
Experiment in all cases: biochemical
Design in all cases: Eurofins KinaseProfiler full panel at Km ATP, residual kinase activity (%) relative to DMSO
CK2α2(h) = target: T1, CK2α2(h) (Homo sapiens, UniProt P19784)
T1 construct: gene CSNK2A2
Summary of the method: (§1)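 Two 10 µM single-concentration screens were run: a competition-binding screen, in which DNA-tagged kinase bound to immobilized ligands was quantified by qPCR, and a radiometric activity panel at Km ATP. Each is expressed as residual kinase activity (%).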

MEKK3(h) = target: T2, MEKK3(h) (Homo sapiens, UniProt Q99759)
T2 construct: gene MAP3K3
T2 sequence (Q99759 1-626): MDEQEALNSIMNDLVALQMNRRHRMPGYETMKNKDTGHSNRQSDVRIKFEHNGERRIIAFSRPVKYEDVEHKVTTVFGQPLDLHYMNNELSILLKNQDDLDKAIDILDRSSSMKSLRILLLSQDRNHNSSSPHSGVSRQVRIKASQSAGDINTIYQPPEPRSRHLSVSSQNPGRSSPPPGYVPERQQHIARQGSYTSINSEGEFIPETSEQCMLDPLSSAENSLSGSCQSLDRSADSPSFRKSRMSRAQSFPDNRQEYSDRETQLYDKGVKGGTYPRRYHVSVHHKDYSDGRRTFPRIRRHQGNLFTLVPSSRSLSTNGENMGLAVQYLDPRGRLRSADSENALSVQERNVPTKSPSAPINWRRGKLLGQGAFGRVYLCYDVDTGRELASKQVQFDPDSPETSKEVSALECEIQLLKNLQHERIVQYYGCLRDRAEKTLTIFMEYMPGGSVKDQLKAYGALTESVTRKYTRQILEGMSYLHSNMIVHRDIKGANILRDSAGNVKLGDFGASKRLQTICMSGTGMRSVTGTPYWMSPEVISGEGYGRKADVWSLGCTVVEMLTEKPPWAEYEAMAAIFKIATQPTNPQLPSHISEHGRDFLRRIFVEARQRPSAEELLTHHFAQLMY
Summary of the method: as §1

NEK3(h) = target: T3, NEK3(h) (Homo sapiens, UniProt P51956)
T3 sequence (P51956 1-506): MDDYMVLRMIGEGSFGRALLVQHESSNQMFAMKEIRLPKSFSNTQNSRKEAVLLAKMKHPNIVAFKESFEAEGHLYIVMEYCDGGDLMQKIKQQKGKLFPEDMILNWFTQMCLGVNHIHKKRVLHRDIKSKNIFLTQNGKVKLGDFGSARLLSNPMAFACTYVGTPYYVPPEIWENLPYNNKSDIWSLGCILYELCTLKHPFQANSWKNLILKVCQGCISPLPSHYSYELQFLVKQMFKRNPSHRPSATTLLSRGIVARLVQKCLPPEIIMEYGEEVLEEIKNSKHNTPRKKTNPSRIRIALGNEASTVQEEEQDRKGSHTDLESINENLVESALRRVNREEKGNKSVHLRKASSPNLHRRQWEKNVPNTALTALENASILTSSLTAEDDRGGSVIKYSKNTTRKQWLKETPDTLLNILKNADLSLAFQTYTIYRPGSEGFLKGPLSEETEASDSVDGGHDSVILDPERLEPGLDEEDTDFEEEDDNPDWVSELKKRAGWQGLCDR
Summary of the method: as §1

PI3 Kinase (p120g)(h) = target: T4, PI3 Kinase (p120g)(h) (Homo sapiens, UniProt P48736)
T4 construct: gene PIK3CG
Summary of the method: as §1

PKA(h) = target: T5, PKA(h) (Homo sapiens, UniProt P17612)
T5 construct: gene PRKACA
Summary of the method: as §1

Pyk2(h) = target: T6, Pyk2(h) (Homo sapiens, UniProt Q14289)
T6 construct: gene PTK2B
Summary of the method: as §1

TYK2(h) = TYK2(h) (Homo sapiens, UniProt P29597)
Summary of the method: as §1

[1] = read-out: Residual activity (%) Spautin-1 5aa
[2] = read-out: Residual activity (%) 5as
[3] = read-out: Residual activity (%) 5at
[4] = read-out: Residual activity (%) 5ay

T4 sequence (P48736 whole entry): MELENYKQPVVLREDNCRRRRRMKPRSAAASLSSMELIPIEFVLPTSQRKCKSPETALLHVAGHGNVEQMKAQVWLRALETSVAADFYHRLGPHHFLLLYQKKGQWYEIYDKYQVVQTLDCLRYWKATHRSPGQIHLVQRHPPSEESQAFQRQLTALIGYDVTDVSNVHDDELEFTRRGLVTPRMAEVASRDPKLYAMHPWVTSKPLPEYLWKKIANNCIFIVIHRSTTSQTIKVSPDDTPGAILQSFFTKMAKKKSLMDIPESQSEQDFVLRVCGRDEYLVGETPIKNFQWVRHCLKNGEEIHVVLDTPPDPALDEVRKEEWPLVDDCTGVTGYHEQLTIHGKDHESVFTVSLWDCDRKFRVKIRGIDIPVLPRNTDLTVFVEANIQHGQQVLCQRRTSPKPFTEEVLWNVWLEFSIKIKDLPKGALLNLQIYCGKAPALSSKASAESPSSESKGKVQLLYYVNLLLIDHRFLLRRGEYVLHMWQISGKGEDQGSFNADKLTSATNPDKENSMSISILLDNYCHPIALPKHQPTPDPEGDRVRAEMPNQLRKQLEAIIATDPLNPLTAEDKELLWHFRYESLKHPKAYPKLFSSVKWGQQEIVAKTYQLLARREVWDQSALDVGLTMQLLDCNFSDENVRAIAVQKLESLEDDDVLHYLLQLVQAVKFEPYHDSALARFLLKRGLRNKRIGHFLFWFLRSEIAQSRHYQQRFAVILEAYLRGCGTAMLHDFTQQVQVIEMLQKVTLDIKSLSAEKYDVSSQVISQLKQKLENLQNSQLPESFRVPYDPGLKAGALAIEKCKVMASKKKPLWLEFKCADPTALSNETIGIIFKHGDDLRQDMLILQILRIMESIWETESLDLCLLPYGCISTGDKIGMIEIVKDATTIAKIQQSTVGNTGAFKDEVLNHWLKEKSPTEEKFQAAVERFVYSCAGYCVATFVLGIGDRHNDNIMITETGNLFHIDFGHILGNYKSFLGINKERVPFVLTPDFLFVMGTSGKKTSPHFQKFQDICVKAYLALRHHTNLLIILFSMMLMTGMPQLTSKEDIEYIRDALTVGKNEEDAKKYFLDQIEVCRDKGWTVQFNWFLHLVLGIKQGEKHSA
Sequence of TYK2(h) (P29597 whole entry): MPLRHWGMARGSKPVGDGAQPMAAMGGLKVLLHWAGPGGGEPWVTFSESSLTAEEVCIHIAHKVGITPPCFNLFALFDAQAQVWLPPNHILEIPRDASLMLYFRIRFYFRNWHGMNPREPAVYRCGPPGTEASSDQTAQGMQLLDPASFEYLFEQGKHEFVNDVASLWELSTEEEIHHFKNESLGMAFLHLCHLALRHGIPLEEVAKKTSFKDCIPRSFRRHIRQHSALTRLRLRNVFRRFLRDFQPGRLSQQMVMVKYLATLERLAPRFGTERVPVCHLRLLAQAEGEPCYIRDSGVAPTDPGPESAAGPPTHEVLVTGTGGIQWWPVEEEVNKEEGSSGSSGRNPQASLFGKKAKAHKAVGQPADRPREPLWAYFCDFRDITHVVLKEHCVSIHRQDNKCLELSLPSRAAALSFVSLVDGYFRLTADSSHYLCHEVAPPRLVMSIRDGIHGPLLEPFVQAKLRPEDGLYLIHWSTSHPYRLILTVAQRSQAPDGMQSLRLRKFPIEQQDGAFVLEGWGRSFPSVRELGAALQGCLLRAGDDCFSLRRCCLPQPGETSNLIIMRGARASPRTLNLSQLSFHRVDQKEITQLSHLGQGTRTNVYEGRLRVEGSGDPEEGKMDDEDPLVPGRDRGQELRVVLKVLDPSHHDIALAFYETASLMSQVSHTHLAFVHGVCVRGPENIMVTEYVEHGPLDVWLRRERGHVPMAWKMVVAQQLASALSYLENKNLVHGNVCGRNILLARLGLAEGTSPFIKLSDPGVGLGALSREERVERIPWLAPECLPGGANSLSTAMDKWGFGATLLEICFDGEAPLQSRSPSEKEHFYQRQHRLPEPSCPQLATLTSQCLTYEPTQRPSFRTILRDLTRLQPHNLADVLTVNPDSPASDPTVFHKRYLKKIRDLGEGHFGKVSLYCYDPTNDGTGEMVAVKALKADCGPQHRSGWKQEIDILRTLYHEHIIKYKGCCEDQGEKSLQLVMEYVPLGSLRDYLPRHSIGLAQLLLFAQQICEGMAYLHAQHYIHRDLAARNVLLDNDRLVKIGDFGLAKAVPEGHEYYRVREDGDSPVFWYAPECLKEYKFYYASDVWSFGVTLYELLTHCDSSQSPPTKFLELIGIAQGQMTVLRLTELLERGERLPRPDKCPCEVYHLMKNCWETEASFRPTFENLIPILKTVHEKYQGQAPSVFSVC
T6 sequence (Q14289 whole entry): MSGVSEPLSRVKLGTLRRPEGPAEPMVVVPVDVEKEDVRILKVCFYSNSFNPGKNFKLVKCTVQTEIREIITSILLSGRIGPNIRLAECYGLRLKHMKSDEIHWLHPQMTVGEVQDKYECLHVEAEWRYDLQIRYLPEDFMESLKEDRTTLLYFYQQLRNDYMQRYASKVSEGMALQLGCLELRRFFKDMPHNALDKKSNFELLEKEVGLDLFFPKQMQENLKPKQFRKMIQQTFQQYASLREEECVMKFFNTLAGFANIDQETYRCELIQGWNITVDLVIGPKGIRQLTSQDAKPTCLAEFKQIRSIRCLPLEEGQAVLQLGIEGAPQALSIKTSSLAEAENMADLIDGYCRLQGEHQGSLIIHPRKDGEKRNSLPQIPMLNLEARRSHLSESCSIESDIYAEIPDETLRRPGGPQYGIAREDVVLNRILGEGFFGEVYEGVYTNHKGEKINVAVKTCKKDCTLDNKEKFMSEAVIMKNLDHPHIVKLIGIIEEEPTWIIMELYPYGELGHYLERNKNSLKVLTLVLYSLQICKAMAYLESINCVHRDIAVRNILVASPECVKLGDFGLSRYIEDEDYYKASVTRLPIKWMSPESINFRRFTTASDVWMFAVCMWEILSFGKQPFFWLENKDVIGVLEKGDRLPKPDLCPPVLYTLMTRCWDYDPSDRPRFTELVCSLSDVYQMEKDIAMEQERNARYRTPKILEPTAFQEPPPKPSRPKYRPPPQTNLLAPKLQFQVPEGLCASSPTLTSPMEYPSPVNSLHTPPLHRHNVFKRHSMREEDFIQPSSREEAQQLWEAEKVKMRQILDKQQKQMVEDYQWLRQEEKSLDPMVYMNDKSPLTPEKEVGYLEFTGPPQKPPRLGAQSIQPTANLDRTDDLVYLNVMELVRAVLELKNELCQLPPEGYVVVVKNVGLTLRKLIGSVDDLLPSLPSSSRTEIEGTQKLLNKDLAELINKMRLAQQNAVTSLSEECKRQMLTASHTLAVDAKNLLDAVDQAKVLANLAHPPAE
T1 sequence (P19784 whole entry): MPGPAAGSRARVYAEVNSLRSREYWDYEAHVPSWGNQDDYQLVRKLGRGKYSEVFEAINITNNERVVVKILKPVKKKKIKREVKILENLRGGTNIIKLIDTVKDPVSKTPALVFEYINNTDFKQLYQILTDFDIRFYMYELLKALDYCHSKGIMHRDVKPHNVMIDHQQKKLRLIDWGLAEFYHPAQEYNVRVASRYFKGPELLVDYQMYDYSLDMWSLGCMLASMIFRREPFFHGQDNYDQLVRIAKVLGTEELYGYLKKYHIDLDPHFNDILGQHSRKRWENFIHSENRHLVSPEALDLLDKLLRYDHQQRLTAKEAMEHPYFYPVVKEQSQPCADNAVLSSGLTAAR

Fc1ccc(CNc2ncnc3ccc(F)cc23)cc1 [5aa, 6-Fluoro-N-(4-fluorobenzyl)-4-Quinazolinamine]
remaining activity at 10 µM (CK2α2(h); [1]): 101%
remaining activity at 10 µM (MEKK3(h); [1]): 93%
remaining activity at 10 µM (NEK3(h); [1]): 71%
remaining activity at 10 µM (PI3 Kinase (p120g)(h); [1]): 91%
remaining activity at 10 µM (PKA(h); [1]): 103%
remaining activity at 10 µM (Pyk2(h); [1]): 86%
remaining activity at 10 µM (TYK2(h); [1]): 109%

Fc1ccc(CCNc2ncnc3ccc(F)cc23)cc1 [5as, 6-Fluoro-N-[2-(4-Fluorophenyl)Ethyl]-4-Quinazolinamine]
remaining activity at 10 µM (CK2α2(h); [2]): 95%
remaining activity at 10 µM (MEKK3(h); [2]): 107%
remaining activity at 10 µM (NEK3(h); [2]): 80%
remaining activity at 10 µM (PI3 Kinase (p120g)(h); [2]): 92%
remaining activity at 10 µM (PKA(h); [2]): 101%
remaining activity at 10 µM (Pyk2(h); [2]): 74%
remaining activity at 10 µM (TYK2(h); [2]): 86%

Fc1ccc2ncnc(NCCc3ccc(Cl)cc3)c2c1 [5at, N-[2-(4-Chlorophenyl)Ethyl]-6-Fluoro-4-Quinazolinamine]
remaining activity at 10 µM (CK2α2(h); [3]): 86%
remaining activity at 10 µM (MEKK3(h); [3]): 98%
remaining activity at 10 µM (NEK3(h); [3]): 99%
remaining activity at 10 µM (PI3 Kinase (p120g)(h); [3]): 90%
remaining activity at 10 µM (PKA(h); [3]): 106%
remaining activity at 10 µM (Pyk2(h); [3]): 69%
remaining activity at 10 µM (TYK2(h); [3]): 84%

COc1ccc2ncnc(Nc3cccc(F)c3)c2c1 [5ay, N-(3-Fluorophenyl)-6-Methoxy-4-Quinazolinamine]
remaining activity at 10 µM (CK2α2(h); [4]): 83%
remaining activity at 10 µM (MEKK3(h); [4]): 83%
remaining activity at 10 µM (NEK3(h); [4]): 87%
remaining activity at 10 µM (PI3 Kinase (p120g)(h); [4]): 91%
remaining activity at 10 µM (PKA(h); [4]): 97%
remaining activity at 10 µM (Pyk2(h); [4]): 72%
remaining activity at 10 µM (TYK2(h); [4]): 75%

Reference: PMC7827406, “Structure–Activity Relationship (SAR) Study of Spautin-1 to Entail the Discovery of Novel NEK4 Inhibitors” (International Journal of Molecular Sciences, 2021)
